# Measured values published in EP0889884B1, “1,2,4-TRIAZINE DERIVATIVES FOR THE INHIBITION OF PROTEIN GLYCOSYLATION” (ALTEON Inc., priority 1996, dated 1997).
# Structures can show the parent of a compound that is named as a salt.
# Test system: not listed separately
# Assay: Inhibition of cross-linking of N-acetyl glycyl-lysine methyl ester in the presence of ribose (fluorescence)
# Type: biochemical
# Conditions: 0.5 M sodium phosphate buffer pH 7.4, 37° C, 16-24 hours, fluorescence 350/400 nm
# Protocol: The following method was used to evaluate the ability of the compounds of the present invention to inhibit the cross-linking of N-acetyl glycyl-lysine methyl ester in the presence of ribose. […] Reaction mixtures are prepared as follows: [table] […] At the end of the incubation period reaction mixture is diluted with 3 ml distilled water and the fluorescence is read using an excitation wavelength of 350 nm and emission wavelength of 400 nm.
row,IC50,Compound
1,0.83 mM,"2-methyl-[6'-(3',4'-diamino-5(4H)-one-1,2,4-triazinyl)]hydrazide"
2,0.97 mM,"CC(C)(CO)c1nnc(N)n(N)c1=O [3,4-diamino-6-(1',1'-dimethyl-2'-hydroxyethyl)-1,2,4-triazine-5(4H)-one]"
3,1.65 mM,"CCOC(=O)C(C)c1nnc(N)n(N)c1=O (centres unmarked) [3,4-diamino-6-(1'-ethoxycarbonylethyl)-1,2,4-triazine-5(4H)-one hydrochloride]"
4,0.48 mM,"CCCCCCC(C(=O)OCC)c1nnc(N)n(N)c1=O (centres unmarked) [3,4-diamino-6-(1'-ethoxycarbonylheptyl)-1,2,4-triazine-5(4H)-one hydrochloride]"
5,1.4 mM,"CCC(C)c1nnc(N)n(N)c1=O (centres unmarked) [3,4-diamino-6-(1-methylpropyl)-1,2,4-triazine-5(4H)-one]"
6,1.97 mM,"Nc1nnc(CCC(=O)O)c(=O)n1N [3,4-diamino-6-(2'-carboxyethyl)-1,2,4-triazine-5(4H)-one]"
7,0.84 mM,"CCOC(=O)CCc1nnc(N)n(N)c1=O [3,4-diamino-6-(2'-ethoxycarbonylethyl)-1,2,4-triazine-5(4H)-one hydrochloride]"
8,1.16 mM,"CC(C)Cc1nnc(N)n(N)c1=O [3,4-diamino-6-(2-methypropyl)-1,2,4-triazine-5(4H)-one]"
9,> 10 mM,"COc1cccc(C(=O)Cc2nnc(N)n(N)c2=O)c1 [3,4-diamino-6-(3'-methoxyphenylcarbonylmethylene)-1,2,4-triazine-5(4H)-one hydrochloride]"
10,0.35 mM,"COc1ccc(C=Cc2nnc(N)n(N)c2=O)cc1OC [3,4-diamino-6-(3,4-dimethoxystyryl)-1,2,4-triazine-5(4H)-one hydrochloride]"
11,1.2 mM,"Nc1nnc(Cc2ccccc2)c(=O)n1N [3,4-diamino-6-benzyl-1,2,4-triazine-5(4H)-one hydrochloride]"
12,2 mM,"Nc1nnc(C2CC2)c(=O)n1N [3,4-diamino-6-cyclopropyl-1,2,4-triazine-5(4H)-one]"
13,2 mM,"CCc1nnc(N)n(N)c1=O [3,4-diamino-6-ethyl-1,2,4-triazine-5(4H)-one hydrochloride]"
14,1.05 mM,"CC(C)c1nnc(N)n(N)c1=O [3,4-diamino-6-isopropyl-1,2,4-triazine-5(4H)-one hydrochloride]"
15,1.23 mM,"Cc1nnc(N)n(N)c1=O [3,4-diamino-6-methyl-1,2,4-triazine-5(4H)-one]"
16,1.3 mM,"CCCc1nnc(N)n(N)c1=O [3,4-diamino-6-propyl-1,2,4-triazine-5(4H)-one hydrochloride]"
17,1.5 mM,"NNC(=O)CCc1nnc(N)n(N)c1=O [3-[6'-(3',4'-diamino-5'(4H)-one-1',2',4'-triazinyl)]-propionic hydrazide hydrochloride]"
18,> 10 mM,"NNc1nncc(=O)n1N [4-amino-3-hydrazino-1,2,4-triazin-5(4H)-one hydrochloride]"
19,> 1 mM,"NNc1nnc(Cc2ccc(O)cc2)c(=O)n1N [4-amino-3-hydrazino-6-(4'-hydroxybenzyl)-1,2,4-triazin-5(4H)-one hydrochloride]"
20,< 3 mM,"Cc1nnc(NN)n(N)c1=O [4-amino-3-hydrazino-6-methyl-1,2,4-triazin-5(4H)-one hydrochloride]"
21,0.73 mM,"NNC(=O)c1nnc(N)n(N)c1=O [6-(3',4'-diamino-5(4H)-one-1,2,4-triazinyl)hydrazide]"

row,Compound,IC50
1,"Nc1nnc(Cc2ccccc2[N+](=O)[O-])c(=O)n1N [3,4-diamino-6-(2'-nitrobenzyl)-1,2,4-triazine-5(4H)-one hydrochloride]",0.9 mM
2,"Nc1nnc(Cc2ccc(O)cc2)c(=O)n1N [3,4-diamino-6-(4-hydroxybenzyl)-1,2,4-triazine-5(4H)-one hydrochloride]",4.4 mM
3,"CCOC(=O)c1nnc(N)n(N)c1=O [3,4-diamino-6-carboxyethyl-1,2,4-triazine-5(4H)-one hydrochloride]",0.72 mM
4,"Nc1nnc(CCc2ccccc2)c(=O)n1N [3,4-diamino-6-phenethyl-1,2,4-triazine-5(4H)-one hydrochloride]",2.7 mM

# Test system: fixed protein (gelatin, i.e., collagen) surface
# Assay: Surface browning experiment on gelatin/paper disks in glucose-6-phosphate
# Conditions: 100 mM glucose-6-phosphate, one week at 50°C; Peridex® at a final concentration of 0.04% chlorhexidine
# Protocol: To further study the ability of inhibitors of nonenzymatic browning to prevent the discoloration of protein on a surface, such as that which occurs on the tooth surface, the following surface browning experiment is performed. As a substitute for a pellicle-covered tooth surface, unexposed and developed photographic paper is used to provide a fixed protein (gelatin, i.e., collagen) surface on a paper backing. Five millimeter circles are punched and immersed for one week at 50°C in a solution of 100 mM glucose-6-phosphate in a 0.5 M phosphate buffer, pH 7.4, containing 3 mM sodium azide. […] In addition to the glucose-6-phosphate, chlorhexidine and/or a compound of Formula I are included. After incubation, the gelatin/paper disks are rinsed with water, observed for brown color, and photographed.
row,Compound,brown color of gelatin/paper disks
1,[H]/N=C(\N/C(=N/[H])NCCCCCCNC(=N)NC(=N)Nc1ccc(Cl)cc1)Nc1ccc(Cl)cc1 [chlorhexidine],significant browning
